Tests used:
[1] = tested on: antibody as produced in Examples 7 and 8 with immunogen of Examples 3a, 3b, 4a & b; assay: Competitive immunoassay cross-reactivity, antibodies of Examples 7 and 8 taken together; type: binding, mouse; conditions: antibodies of Examples 7 and 8, immunogens of Examples 3a
Description: The present invention relates to novel antibodies and monoclonal antibodies to doxorubicin. The antisera of the invention can be conveniently produced by immunizing host animals with the immunogens of this invention. Suitable host animals include rodents, such as, for example, mice, rats, rabbits, guinea pigs and the like, or higher mammals such as goats, sheep, horses and the like. […] Doxorubicin concentrations were measured by an indirect competitive Enzyme-Linked Immunosorbent Assay (ELISA) method This method for measuring doxorubicin concentrations was performed with the microtiter plates that were sensitized with doxorubicin [1]-BSA described in Examples 9b, c, d. […] The assay was performed by incubating 50 μL of the analytes to be measured with 50 μL of antibody (produced in Examples 7 and 8 with immunogens of Examples 3a, 3b, 4a and 4b) diluted to a titer determined in Example 10a. […] Following the incubation for color development, 50 μL of stop solution (1.5% sodium fluoride in di H2O) was added to each well to stop the color development and after 10 seconds of shaking the absorbance was determined at 650 nm with a 96-well plate reader. The amount of antibody in a well was proportional to the absorbance measured and inversely proportional to the amount of doxorubicin in the sample. […]

[2] = tested on: antibodies to doxorubicin [5]-KLH (Immunogen Example 4b, Example 8); assay: Indirect competitive microtiter plate ELISA, cross-reactivity, antiserum from doxorubicin [5]-KLH immunogen (Example 4b); type: binding, mouse (BALB/c); conditions: relative to doxorubicin
Description: Mice were boosted once four weeks after the initial injection with 100 μg/mouse of the same immunogens emulsified in Incomplete Freund's Adjuvant. Ten and 28 days after the boost test bleeds from each mouse were obtained by orbital bleed. The anti-serum from the day 28 test bleeds contained doxorubicin antibodies evaluated in Examples 10a and 11. […] For the purpose of screening antibodies and measuring doxorubicin concentration by the Enzyme-Linked Immunosorbent Assay (ELISA) method polystyrene microtiter plates (Nunc MaxiSorp F8 Immunomodules) optimized for protein binding and containing 96 wells per plate were used. […] The wells were washed with 0.005 M MES, pH 6 and then were blocked with 375 μL of 5% sucrose, 0.2% sodium caseinate solution for 30 minutes at room temperature. After removal of the post-coat solution the plates were dried at 37° C. overnight. For the purpose of screening antibodies and measuring doxorubicin concentration by the Enzyme-Linked Immunosorbent Assay (ELISA) method polystyrene microtiter plates (Nunc MaxiSorp F8 Immunomodules) optimized for protein binding and containing 96 wells per plate were used. […] The wells were washed with 0.005 M MES, pH 6 and then were blocked with 375 μL of 5% sucrose, 0.2% sodium caseinate solution for 30 minutes at room temperature. After removal of the post-coat solution the plates were dried at 37° C. overnight. For the purpose of screening antibodies and measuring doxorubicin concentration by the Enzyme-Linked Immunosorbent Assay (ELISA) method polystyrene microtiter plates (Nunc MaxiSorp F8 Immunomodules) optimized for protein binding and containing 96 wells per plate were used. […] Following the incubation for color development, 50 μL of stop solution (1.5% sodium fluoride in di H2O) was added to each well to stop the color development and after 10 seconds of shaking the absorbance was determined at 650 nm with a 96-well plate reader. The amount of antibody in a well was proportional to the absorbance measured and was expressed as the dilution (titer) resulting in an absorbance of 1.5. Titers were determined by graphing log antibody dilution of the antibody measured (x-axis) vs. absorbance 650 nm (y-axis) and extrapolating the titer at an absorbance of 1.5. The titer determined the concentration (dilution) of antibody used in the indirect competitive Microtiter plate assay described in Example 11. Doxorubicin concentrations were measured by an indirect competitive Enzyme-Linked Immunosorbent Assay (ELISA) method This method for measuring doxorubicin concentrations was performed with the microtiter plates that were sensitized with doxorubicin [1]-BSA described in Examples 9b, c, d. […]

[3] = tested on: antibodies to doxorubicin [5]-BTG (Immunogen Example 4a, Example 8); assay: Indirect competitive microtiter plate ELISA, cross-reactivity, antiserum from doxorubicin [5]-BTG immunogen (Example 4a); type: binding, mouse (BALB/c); conditions: relative to doxorubicin
Description: Mice were boosted once four weeks after the initial injection with 100 μg/mouse of the same immunogens emulsified in Incomplete Freund's Adjuvant. Ten and 28 days after the boost test bleeds from each mouse were obtained by orbital bleed. The anti-serum from the day 28 test bleeds contained doxorubicin antibodies evaluated in Examples 10a and 11. […] For the purpose of screening antibodies and measuring doxorubicin concentration by the Enzyme-Linked Immunosorbent Assay (ELISA) method polystyrene microtiter plates (Nunc MaxiSorp F8 Immunomodules) optimized for protein binding and containing 96 wells per plate were used. […] The wells were washed with 0.005 M MES, pH 6 and then were blocked with 375 μL of 5% sucrose, 0.2% sodium caseinate solution for 30 minutes at room temperature. After removal of the post-coat solution the plates were dried at 37° C. overnight. […] The wells were washed with 0.005 M MES, pH 6 and then were blocked with 375 μL of 5% sucrose, 0.2% sodium caseinate solution for 30 minutes at room temperature. After removal of the post-coat solution the plates were dried at 37° C. overnight. For the purpose of screening antibodies and measuring doxorubicin concentration by the Enzyme-Linked Immunosorbent Assay (ELISA) method polystyrene microtiter plates (Nunc MaxiSorp F8 Immunomodules) optimized for protein binding and containing 96 wells per plate were used. […] The wells were washed with 0.005 M MES, pH 6 and then were blocked with 375 μL of 5% sucrose, 0.2% sodium caseinate solution for 30 minutes at room temperature. After removal of the post-coat solution the plates were dried at 37° C. overnight. Antibodies were screened by Enzyme-Linked Immunosorbent Assay (ELISA) method. […] During this incubation antibody binds to the doxorubicin [5]-conjugate in the well. […] After an incubation of 10 minutes at room temperature with shaking, during which the goat anti-mouse antibody—HRP enzyme conjugate binds to doxorubicin antibodies in the wells, the plates were again washed three times to remove unbound goat anti-mouse antibody—HRP enzyme conjugate. To develop a measurable color in the wells washing was followed by the addition of 100 μL of TMB (TMB Liquid Substrate), a substrate for HRP, to develop color during a 10 minute incubation with shaking at room temperature. Following the incubation for color development, 50 μL of stop solution (1.5% sodium fluoride in di H2O) was added to each well to stop the color development and after 10 seconds of shaking the absorbance was determined at 650 nm with a 96-well plate reader. The amount of antibody in a well was proportional to the absorbance measured and was expressed as the dilution (titer) resulting in an absorbance of 1.5. Titers were determined by graphing log antibody dilution of the antibody measured (x-axis) vs. absorbance 650 nm (y-axis) and extrapolating the titer at an absorbance of 1.5. The titer determined the concentration (dilution) of antibody used in the indirect competitive Microtiter plate assay described in Example 11. Doxorubicin concentrations were measured by an indirect competitive Enzyme-Linked Immunosorbent Assay (ELISA) method This method for measuring doxorubicin concentrations was performed with the microtiter plates that were sensitized with doxorubicin [1]-BSA described in Examples 9b, c, d. […] During the 10 minute incubation (R.T., with shaking) there is a competition of antibody binding for the doxorubicin conjugate in the well and the analyte in solution. […]

[4] = tested on: monoclonal antibody to doxorubicin [4]-KLH (Immunogen Example 3b, Example 7); assay: Indirect competitive microtiter plate ELISA, cross-reactivity, monoclonal antibody from doxorubicin [4]-KLH immunogen (Example 3b); type: binding, mouse (BALB/c); conditions: relative to doxorubicin
Description: (§1) Two groups of ten Female BALB/c mice were immunized i.p. one with 100 μg/mouse of doxorubicin [4]-BTG immunogen prepared in Example 3a and the other with 100 μg/mouse of doxorubicin [4]-KLH immunogen prepared in Example 3b emulsified in Complete Freund's adjuvant. The mice were boosted once four weeks after the initial injection with 100 μg/mouse of the same immunogens emulsified in Incomplete Freund's Adjuvant. Ten days after the boost test bleeds from each mouse were obtained by orbital bleed. For monoclonal antibodies depending on the immunogen, age and rest period of the mouse starting four days before the fusion, the mice were injected i.p. with either 400 μg (3 days before fusion), 200 μg (2 days before fusion), and […] (1 day before fusion) of doxorubicin [4]-BTG immunogen prepared in Example 3a in PBS or 100 ug on each day of doxorubicin [4]-KLH immunogen prepared in Example 3b in PBS on three successive days. According to the protocol of Coligan et al. spleen cells were isolated from the selected mice and fused with 2×10^7 cells of the myeloma fusion partner cell line (SP2/0) using 50% polyethylene glycol 1500 [Coligan, J. E. et al., eds., Current Protocols in Immunology, 2.5.1-2.5.8, (1992), Wiley & Sons, NY.] To grow the fused cells into antibody producing colonies according to the method of Coligan et al. the fused cells were plated on 10 96-well plates in a conventional HAT (hypoxanthine, aminopterin and thymidine) selective growth medium such as DMEM/F12 (Dulbecco's Modified Eagle's Medium 1:1 with L-glutamine and HEPES) supplemented with 20% fetal bovine serum alternative, and containing 2% L-glutamine (100 mM) and 2% 50× HAT. Two weeks later, the hybridoma supernatant was assayed for the presence of anti-doxorubicin antibodies by ELISA as described in Example 10b. Positive wells were expanded and again screened by the same method. The positive clones were confirmed for doxorubicin binding by a competitive ELISA as described in Example 11 or subcloned directly. Clones positive by ELISA were subcloned once or twice by limiting dilution according to the method disclosed in Coligan, J. E. et al., eds., Current Protocols in Immunology, 2.5.8-2.5.17, (1992), Wiley & Sons, NY.
(§2) For the purpose of screening antibodies and measuring doxorubicin concentration by the Enzyme-Linked Immunosorbent Assay (ELISA) method polystyrene microtiter plates (Nunc MaxiSorp F8 Immunomodules) optimized for protein binding and containing 96 wells per plate were used. Each well was coated with doxorubicin [5]-BSA 3:1 conjugate (prepared as in Example 6b) by adding 300 μL of doxorubicin [1]-BSA conjugate at 10 μg/mL in 0.01 M MES, pH=6, and incubating for three hours at room temperature. The wells were washed with 0.005 M MES, pH 6 and then were blocked with 375 μL of 5% sucrose, 0.2% sodium caseinate solution for 30 minutes at room temperature. After removal of the post-coat solution the plates were dried at 37° C. overnight.
as §2, with “[1]-BSA 1:1” for “[5]-BSA 3:1”, “6c)” for “6b)”, “[5]-BSA” for “[1]-BSA”
For the purpose of screening antibodies and measuring doxorubicin concentration by the Enzyme-Linked Immunosorbent Assay (ELISA) method polystyrene microtiter plates (Nunc MaxiSorp F8 Immunomodules) optimized for protein binding and containing 96 wells per plate were used. […]

[5] = tested on: monoclonal antibody to doxorubicin [4]-BTG (Immunogen Example 3a, Example 7); assay: Indirect competitive microtiter plate ELISA, cross-reactivity, monoclonal antibody from doxorubicin [4]-BTG immunogen (Example 3a); type: binding, mouse (BALB/c); conditions: relative to doxorubicin
Description: as §1
as §2, with “The wells were washed with 0.005 M MES, pH 6 and then were blocked with 375 μL of 5% sucrose, 0.2% sodium caseinate solution for 30 minutes at room temperature. After removal of the post-coat solution the plates were dried at 37° C. overnight.” left out

[6] = plate sensitized as in Example 9b (doxorubicin [5]-BSA 3:1)
[7] = plate sensitized as in Example 9c (doxorubicin [5]-BSA 1:1)
[8] = plate sensitized as in Example 9d (doxorubicin [5]-BSA 1:1 thiol capped)

Row | SMILES | percent cross-reactivity relative to doxorubicin [1] | % cross-reactivity [2, 6] | % cross-reactivity [3, 6] | % cross-reactivity [3, 7] | % cross-reactivity [3, 8] | % cross-reactivity [4, 6] | % cross-reactivity [4, 7] | % cross-reactivity [4, 8] | % cross-reactivity [5, 6] | % cross-reactivity [5, 7] | % cross-reactivity [2, 7] | % cross-reactivity [2, 8]
1 | COc1cccc2c1C(=O)c1c(O)c3c(c(O)c1C2=O)C[C@@](O)(C(=O)CO)C[C@@H]3O [doxorubicin-aglycone, doxorubicin aglycone] | less than or equal to 10% | 8.6% | 5.7% | 10.0% | 8.8% | 1.5% | 3.9% | 3.0% | 10.6% | 12.9% |  | 
2 | COc1cccc2c1C(=O)c1c(O)c3c(c(O)c1C2=O)C[C@@](O)(C(=O)CO)C[C@@H]3O[C@H]1C[C@H](N)[C@H](O)[C@H](C)O1.Cl [doxorubicin] |  | 100% | 100% | 100% | 100% | 100% | 100% | 100% | 100% | 100% | 100% | 100%
